Measurements from patent publication US5852018A, “Pharmaceutical piperazine compounds” (Xenova Limited, priority 1994, dated 1998).
Values joined by “and” are separate entries in the source; they are usually repeats but may differ in a detail not shown here. Equal entries are not always repeated.

What was measured:
AR 1.0 cells [1] = assay: Drug accumulation assay (tritiated daunorubicin) in MDR resistant AR 1.0 cells; assay type: cell-based; details: Mus musculus, DNR 2 μM; for Emax: 1 h, 100% = accumulation with 100 μM Verapamil, read-out: MAX accumulation (% 100 μm VRP); for IC50: 37° C., 1 hr
Protocol: The EMT6 mouse mammary carcinoma cell line and the MDR resistant subline AR 1.0 were cultured in RPMI 1640 medium containing 10% foetal calf serum and 2 mM glutamine at 37° C. in 5% CO2 . Cells were passaged between 1 in 200 and 1 in 2000 in the case of the parental cell line and between 1 in 20 and 1 in 200 in the case of the MDR resistant subline, after trypsinisation (0.25% trypsin, 0.2 gl^-1, EDTA).
AR 1.0 cells were seeded into 96 well opaque culture plates (Canberra Packard). The assay medium contained a mixture of tritiated Daunorubicin (DNR), a cytotoxic agent, and unlabelled DNR (0.25μ Ci/ml; 2 μM). Compounds of formula A were serially diluted in assay medium over a range of concentrations from 100 nM to 100 μM. The cells were incubated at 37° C. for 1 hr before washing and counting of cell associated radioactivity. Each assay included a titration of the known resistance modifying agent Verapamil as positive control. Results were expressed as % maximum accumulation where 100% accumulation is that observed in the presence of 100 μM Verapamil.

AR 1.0 cells [2] = assay: Potentiation of doxorubicin toxicity (potentiation index) in AR 1.0 cells; assay type: cell-based, mouse; details: four days
AR 1.0 cells [3] = assay: Proliferation assay with and without fixed concentration of doxorubicin (sulphorhodamine B); assay type: cell-based, mouse; details: four days
Description: Compounds of formula A were examined for their ability to potentiate the toxicity of doxorubicin in AR 1.0 cells.

MDR cells = details: in vitro and in vivo; Cancer Res., 41, 1967-1972 (1981); cited from earlier work
[4] = Mus musculus, 96 h, compound alone, read-out: COMPOUND TOXICITY (IC50)
[5] = cytotoxic agent 0.50 μg/ml, 5760 min, read-out: TOXICITY WITH CYTOTOXIC AGENT (IC 50)
[6] = cytotoxic agent 1.00 μg/ml, 5760 min, read-out: TOXICITY WITH CYTOTOXIC AGENT (IC 50)

| IC50 (AR 1.0 cells [1]) [µM] | Compound | Emax (AR 1.0 cells [1]) [%] | Potentiation Index (AR 1.0 cells [2]; Conc Comp 3 μM) | IC50 (AR 1.0 cells [3]; [4]) [µM] | sensitisation of MDR cells to Vinca alkaloids (MDR cells) | Potentiation Index (AR 1.0 cells [2]; Conc Comp 5 μM) | IC50 (AR 1.0 cells [3]; [5]) [µM] | IC50 (AR 1.0 cells [3]; [6]) [µM] |
| --- | --- | --- | --- | --- | --- | --- | --- | --- |
| 15 | COc1ccc(/C=c2\[nH]c(=O)/c(=C/c3ccccc3)n(CC3CC3)c2=O)cc1 [Compound 1500] | 91.3 | 10 | 20 |  |  |  |  |
| 3 | Cn1c(=O)/c(=C/c2ccccc2)nc(OCCCN2C(=O)c3ccccc3C2=O)/c1=C/c1ccccc1 [Compound 1824, (3Z,6Z)-3,6-Dibenzylidene-1-methyl-5-(3-phthalimidopropoxy)-3,6-dihydro-2-pyrazinone] |  | 60 and 80 | 7 |  |  |  |  |
|  | COc1ccc(CCN(C)CCCC(C#N)(c2ccc(OC)c(OC)c2)C(C)C)cc1OC (stereo not drawn) [Verapamil] |  |  |  | sensitise MDR cells to Vinca alkaloids in vitro and in vivo |  |  |  |
| 10 | COc1ccc(/C=c2/c(=O)[nH]/c(=C\c3ccccc3)c(=O)n2CC2CC2)cc1 [Compound 1454, (3Z,6Z)-3-Benzylidene-1-cyclopropylmethyl-6-(4-methoxybenzylidene)-2,5-piperazinedione] |  |  | 5 |  | 10 |  |  |
| 10 | CCCCCOc1n/c(=C\c2ccccc2)c(=O)n(C)/c1=C\c1ccccc1 [Compound 1855] |  |  | 6 |  |  | 0.8 |  |
| 9 | Cn1c(=O)/c(=C/c2ccccc2)n(CC2OCCO2)c(=O)/c1=C/c1ccccc1 [Compound 1823, (3Z,6Z)-3,6-Dibenzylidene-4-methyl-2,5-dioxo-1-piperazinylacetaldehydeethylene acetal] |  | 20 | 30 |  |  | 0.7 |  |
| 9 | Cn1c(=O)/c(=C/c2ccccc2)nc(OCC2OCCO2)/c1=C/c1ccccc1 [Compound 1822, (3Z,6Z)-3,6-Dibenzylidene-1-methyl-2-oxo-1,2,3,6-tetrahydro-5-pyrazinyloxyacetaldehyde ethylene acetal] |  |  | 5 |  |  |  |  |
| 15 | Cn1c(=O)/c(=C/c2ccccc2)n(Cc2ccccc2)c(=O)/c1=C/c1ccccc1 [Compound 1779, (3Z,6Z)-1-Benzyl-3,6-dibenzylidene-4-methyl-2,5-piperazinedione] |  |  | 15 |  | 40 |  | 0.8 |
| 10 | C=CCn1c(=O)/c(=C/c2ccccc2)n(C)c(=O)/c1=C/c1ccccc1 [Compound 1825, (3Z,6Z)-1-Allyl-3,6-dibenzylidene-4-methyl-2,5-piperazinedione] |  | 15 | 20 |  |  | 1.5 |  |
| 30 | COC(=O)Cn1c(=O)/c(=C/c2ccc(OC)cc2)[nH]c(=O)/c1=C/c1ccccc1 [Compound 1490, Methyl (3Z,6Z)-6-benzylidene-3-(4-methoxybenzylidene)-2,5-dioxo-1-piperazinylacetate] | 63.6 |  | 30 |  |  |  | 2 |
| 40 | CCN(CC)C(=O)Cn1c(=O)/c(=C/c2ccc(OC)cc2)[nH]c(=O)/c1=C/c1ccccc1 [Compound 1527, N,N-Diethyl-(3Z,6Z)-6-benzylidene-3-(4-methoxybenzylidene)-2,5-dioxo-1-piperazinylacetamide] | 73.9 |  | 40 |  |  |  | 1.5 |
| 12 | COc1ccc(/C=c2/c(=O)n(CC3CC3)/c(=C\c3ccccc3)c(=O)n2C)cc1 [Compound 1833] |  | 20 | 9 |  |  | 1 |  |
| 50 | COC(=O)Cn1c(=O)/c(=C/c2ccccc2)[nH]c(=O)/c1=C/c1ccc(OC)cc1 [Compound 1486, Methyl (3Z,6Z)-3-benzylidene-6-(4-methoxybenzylidene)-2,5-dioxo-1-piperazinylacetate] |  |  | 10 |  |  |  |  |
